{"source": "paper PMC4109385", "about": "(BMC Microbiology, 2014)", "molecular_target": "ClpC (with MecA) (Streptococcus mutans, UniProt Q8DS14)", "sequence (Q8DW33 whole entry)": "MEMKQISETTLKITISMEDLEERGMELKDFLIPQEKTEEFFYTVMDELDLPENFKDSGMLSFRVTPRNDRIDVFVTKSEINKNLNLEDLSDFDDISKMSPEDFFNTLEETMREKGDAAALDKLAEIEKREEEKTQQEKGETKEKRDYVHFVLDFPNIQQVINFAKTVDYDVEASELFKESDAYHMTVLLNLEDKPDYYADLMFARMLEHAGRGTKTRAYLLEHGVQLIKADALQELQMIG", "sequence (Q8DS14 entry or part of it)": "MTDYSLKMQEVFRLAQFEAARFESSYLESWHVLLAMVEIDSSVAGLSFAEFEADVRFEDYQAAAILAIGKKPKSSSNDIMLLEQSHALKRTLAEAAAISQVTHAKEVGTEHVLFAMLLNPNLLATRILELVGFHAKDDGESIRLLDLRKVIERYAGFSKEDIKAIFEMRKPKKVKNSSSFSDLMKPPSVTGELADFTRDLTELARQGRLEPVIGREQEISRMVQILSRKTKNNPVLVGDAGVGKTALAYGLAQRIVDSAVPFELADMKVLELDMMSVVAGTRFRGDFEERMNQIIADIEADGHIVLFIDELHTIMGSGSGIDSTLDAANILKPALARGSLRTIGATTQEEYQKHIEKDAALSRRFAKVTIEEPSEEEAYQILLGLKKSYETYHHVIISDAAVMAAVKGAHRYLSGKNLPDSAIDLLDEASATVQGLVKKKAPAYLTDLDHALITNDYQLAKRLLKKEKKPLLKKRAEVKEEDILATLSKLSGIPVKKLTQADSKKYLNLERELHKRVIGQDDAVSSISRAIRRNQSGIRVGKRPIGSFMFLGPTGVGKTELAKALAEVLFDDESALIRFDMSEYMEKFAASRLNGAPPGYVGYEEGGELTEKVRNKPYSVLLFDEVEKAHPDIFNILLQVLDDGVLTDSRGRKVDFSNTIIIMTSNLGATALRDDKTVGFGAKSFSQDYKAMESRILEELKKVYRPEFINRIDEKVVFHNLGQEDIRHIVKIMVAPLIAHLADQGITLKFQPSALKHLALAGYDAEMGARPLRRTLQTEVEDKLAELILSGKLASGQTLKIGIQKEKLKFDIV", "conditions": "2 mM ATP, 5 mM MgCl2, 100 mM KCl, 25 mM Tris-HCl pH 8.0, 37 °C; 0.3 uM proteins; MecA present", "data": [{"smiles": "Nc1ncnc2c1ncn2[C@@H]1O[C@H](COP(=O)(O)OP(=O)(O)OP(=O)(O)O)[C@@H](O)[C@H]1O", "note": "[ATP]", "values": [{"measurement": "malachite green ATPase assay (released orthophosphate)", "value": "the presence of MecA increased the ATPase activity of ClpC (Figure 6A)"}]}]}
